{"source": "patent US20230085307A1", "about": "“PYRIDAZINONE COMPOUND AND HERBICIDE” (NISSAN CHEMICAL CORPORATION, priority 2019, published 2023)"}
{"tested_on": "oval-leafed pondweed", "experiment": "Test Example 1: herbicidal activity, application before weed generation under submerged conditions (Table 16, symbol C)", "assay_type": "in vivo, oval-leafed pondweed (Monochoria vaginalis)", "settings": "320 g/ha applied herbicide", "method_in_brief": "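Alluvial soil was flooded to 4 cm depth, weed seeds were sown mixed and 2.5-leaf rice seedlings were transplanted. On sowing day, the compound's emulsion, diluted in water to a set dose, was applied to the water surface. Plants grew at 25–30 °C and were scored 0–5 after three weeks.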"}
{"molecule": "Cc1ccccc1C(=O)Oc1c(C)nn(C)c(=O)c1-c1c(-c2ccc(OC(F)F)cc2)sc2ccc(F)cc12", "note": "[2-285]", "Herbicidal effect on C: oval-leafed pondweed (grade 0-5)": "0 (Herbicidal rate of 5% or less (almost no effect))"}
{"molecule": "Cc1nn(C)c(=O)c(-c2c(-c3ccc(OC(F)F)cc3)sc3ccc(F)cc23)c1OC(=O)c1cccs1", "note": "[2-288]", "Herbicidal effect on C: oval-leafed pondweed (grade 0-5)": "4 (Herbicidal rate of 70% or more and less than 90%)"}
{"tested_on": "Japanese bulrush", "experiment": "Test Example 2: herbicidal activity, application during weed generation under submerged conditions (Table 17, symbol B)", "assay_type": "in vivo, Japanese bulrush (Schoenoplectus juncoides)", "settings": "AAH 320 g/ha; application during weed generation, submerged conditions", "method_in_brief": "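3-wk visual-criteria score after one water-surface dose. Emulsion formulation, water-diluted to set rate; applied at 1–2 leaf stage; alluvial soil, 4 cm standing water; seeds co-sown; greenhouse 25–30° C.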"}
{"molecule": "Cc1ccccc1C(=O)Oc1c(C)nn(C)c(=O)c1-c1c(-c2ccc(OC(F)F)cc2)sc2ccc(F)cc12", "note": "[2-285]", "herbicidal effect rating, B: Japanese bulrush": "3 (Herbicidal rate of 40% or more and less than 70%)"}
{"molecule": "Cc1nn(C)c(=O)c(-c2c(-c3ccc(OC(F)F)cc3)sc3ccc(F)cc23)c1OC(=O)c1cccs1", "note": "[2-288]", "herbicidal effect rating, B: Japanese bulrush": "3 (Herbicidal rate of 40% or more and less than 70%)"}
{"tested_on": "southern crabgrass", "experiment": "Test Example 4: herbicidal effect by soil treatment (Table 19, symbol F)", "assay_type": "in vivo, southern crabgrass (Digitaria ciliaris)", "settings": "amount of applied herbicide 320 g/ha", "method_in_brief": "(§1)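 Step 1: sow seeds in sterilized diluvial soil, cover ~1.5 cm. Step 2: spray diluted emulsion onto soil surface at predetermined rate. Step 3: greenhouse, 25–30° C, three weeks. Step 4: grade effect on each plant by earlier criteria.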"}
{"molecule": "Cc1ccccc1C(=O)Oc1c(C)nn(C)c(=O)c1-c1c(-c2ccc(OC(F)F)cc2)sc2ccc(F)cc12", "note": "[2-285]", "herbicidal effect on F: southern crabgrass": "0 (Herbicidal rate of 5% or less (almost no effect))"}
{"molecule": "Cc1nn(C)c(=O)c(-c2c(-c3ccc(OC(F)F)cc3)sc3ccc(F)cc23)c1OC(=O)c1cccs1", "note": "[2-288]", "herbicidal effect on F: southern crabgrass": "3 (Herbicidal rate of 40% or more and less than 70%)"}
{"tested_on": "green foxtail", "experiment": "Test Example 4: herbicidal effect by soil treatment (Table 19, symbol G)", "assay_type": "in vivo, green foxtail (Setaria viridis)", "settings": "amount of applied herbicide 320 g/ha", "method_in_brief": "as §1"}
{"molecule": "Cc1ccccc1C(=O)Oc1c(C)nn(C)c(=O)c1-c1c(-c2ccc(OC(F)F)cc2)sc2ccc(F)cc12", "note": "[2-285]", "herbicidal effect on G: green foxtail": "0 (Herbicidal rate of 5% or less (almost no effect))"}
{"molecule": "Cc1nn(C)c(=O)c(-c2c(-c3ccc(OC(F)F)cc3)sc3ccc(F)cc23)c1OC(=O)c1cccs1", "note": "[2-288]", "herbicidal effect on G: green foxtail": "4 (Herbicidal rate of 70% or more and less than 90%)"}
{"tested_on": "barnyard grass", "experiment": "Test Example 4: herbicidal effect by soil treatment (Table 19, symbol H)", "assay_type": "in vivo, barnyard grass (Echinochloa crus-galli)", "settings": "amount of applied herbicide 320 g/ha", "method_in_brief": "as §1"}
{"molecule": "Cc1ccccc1C(=O)Oc1c(C)nn(C)c(=O)c1-c1c(-c2ccc(OC(F)F)cc2)sc2ccc(F)cc12", "note": "[2-285]", "herbicidal effect on H: barnyard grass": "0 (Herbicidal rate of 5% or less (almost no effect))"}
{"molecule": "Cc1nn(C)c(=O)c(-c2c(-c3ccc(OC(F)F)cc3)sc3ccc(F)cc23)c1OC(=O)c1cccs1", "note": "[2-288]", "herbicidal effect on H: barnyard grass": "2 (Herbicidal rate of 20% or more and less than 40%)"}
{"tested_on": "wild oat", "experiment": "Test Example 4: herbicidal effect by soil treatment (Table 19, symbol I)", "assay_type": "in vivo, wild oat (Avena fatua)", "settings": "amount of applied herbicide 320 g/ha", "method_in_brief": "as §1"}
{"molecule": "Cc1ccccc1C(=O)Oc1c(C)nn(C)c(=O)c1-c1c(-c2ccc(OC(F)F)cc2)sc2ccc(F)cc12", "note": "[2-285]", "herbicidal effect on I: wild oat": "0 (Herbicidal rate of 5% or less (almost no effect))"}
{"molecule": "Cc1nn(C)c(=O)c(-c2c(-c3ccc(OC(F)F)cc3)sc3ccc(F)cc23)c1OC(=O)c1cccs1", "note": "[2-288]", "herbicidal effect on I: wild oat": "0 (Herbicidal rate of 5% or less (almost no effect))"}
{"tested_on": "blackgrass", "experiment": "Test Example 4: herbicidal effect by soil treatment (Table 19, symbol J)", "assay_type": "in vivo, blackgrass (Alopecurus myosuroides)", "settings": "amount of applied herbicide 320 g/ha", "method_in_brief": "as §1"}
{"molecule": "Cc1ccccc1C(=O)Oc1c(C)nn(C)c(=O)c1-c1c(-c2ccc(OC(F)F)cc2)sc2ccc(F)cc12", "note": "[2-285]", "herbicidal effect on J: blackgrass": "0 (Herbicidal rate of 5% or less (almost no effect))"}
{"molecule": "Cc1nn(C)c(=O)c(-c2c(-c3ccc(OC(F)F)cc3)sc3ccc(F)cc23)c1OC(=O)c1cccs1", "note": "[2-288]", "herbicidal effect on J: blackgrass": "0 (Herbicidal rate of 5% or less (almost no effect))"}
{"tested_on": "velvetleaf", "experiment": "Test Example 4: herbicidal effect by soil treatment (Table 19, symbol M)", "assay_type": "in vivo, velvetleaf (Abutilon theophrasti)", "settings": "amount of applied herbicide 320 g/ha", "method_in_brief": "as §1"}
{"molecule": "Cc1ccccc1C(=O)Oc1c(C)nn(C)c(=O)c1-c1c(-c2ccc(OC(F)F)cc2)sc2ccc(F)cc12", "note": "[2-285]", "herbicidal effect on M: velvetleaf": "0 (Herbicidal rate of 5% or less (almost no effect))"}
{"molecule": "Cc1nn(C)c(=O)c(-c2c(-c3ccc(OC(F)F)cc3)sc3ccc(F)cc23)c1OC(=O)c1cccs1", "note": "[2-288]", "herbicidal effect on M: velvetleaf": "3 (Herbicidal rate of 40% or more and less than 70%)"}
{"tested_on": "lambsquarters", "experiment": "Test Example 4: herbicidal effect by soil treatment (Table 19, symbol O)", "assay_type": "in vivo, lambsquarters (Chenopodium album)", "settings": "amount of applied herbicide 320 g/ha", "method_in_brief": "as §1"}
{"molecule": "Cc1ccccc1C(=O)Oc1c(C)nn(C)c(=O)c1-c1c(-c2ccc(OC(F)F)cc2)sc2ccc(F)cc12", "note": "[2-285]", "herbicidal effect on O: lambsquarters": "0 (Herbicidal rate of 5% or less (almost no effect))"}
{"molecule": "Cc1nn(C)c(=O)c(-c2c(-c3ccc(OC(F)F)cc3)sc3ccc(F)cc23)c1OC(=O)c1cccs1", "note": "[2-288]", "herbicidal effect on O: lambsquarters": "4 (Herbicidal rate of 70% or more and less than 90%)"}
{"tested_on": "chickweed", "experiment": "Test Example 4: herbicidal effect by soil treatment (Table 19, symbol P)", "assay_type": "in vivo, common chickweed (Stellaria media)", "settings": "amount of applied herbicide 320 g/ha", "method_in_brief": "as §1"}
{"molecule": "Cc1ccccc1C(=O)Oc1c(C)nn(C)c(=O)c1-c1c(-c2ccc(OC(F)F)cc2)sc2ccc(F)cc12", "note": "[2-285]", "herbicidal effect on P: chickweed": "3 (Herbicidal rate of 40% or more and less than 70%)"}
{"molecule": "Cc1nn(C)c(=O)c(-c2c(-c3ccc(OC(F)F)cc3)sc3ccc(F)cc23)c1OC(=O)c1cccs1", "note": "[2-288]", "herbicidal effect on P: chickweed": "4 (Herbicidal rate of 70% or more and less than 90%)"}
{"tested_on": "persian speedwell", "experiment": "Test Example 4: herbicidal effect by soil treatment (Table 19, symbol R)", "assay_type": "in vivo, Persian speedwell (Veronica persica)", "settings": "amount of applied herbicide 320 g/ha", "method_in_brief": "as §1"}
{"molecule": "Cc1ccccc1C(=O)Oc1c(C)nn(C)c(=O)c1-c1c(-c2ccc(OC(F)F)cc2)sc2ccc(F)cc12", "note": "[2-285]", "herbicidal effect on R: persian speedwell": "3 (Herbicidal rate of 40% or more and less than 70%)"}
{"molecule": "Cc1nn(C)c(=O)c(-c2c(-c3ccc(OC(F)F)cc3)sc3ccc(F)cc23)c1OC(=O)c1cccs1", "note": "[2-288]", "herbicidal effect on R: persian speedwell": "5 (Herbicidal rate of 90% or more (almost completely withered))"}
{"tested_on": "southern crabgrass", "experiment": "Test Example 5: herbicidal effect by foliage application, plastic box (Table 20, symbol F)", "assay_type": "in vivo, southern crabgrass (Digitaria ciliaris)", "settings": "foliage application, AAH 320 g/ha, evaluated three weeks after application", "method_in_brief": "(§2)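 Foliar spray test: emulsion formulation diluted in water to a set application rate, sprayed onto 14-day-old plants raised in diluvial soil at 25° C to 30° C under glass. Both herbicidal effect and crop effect rated visually three weeks later.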"}
{"molecule": "Cc1ccccc1C(=O)Oc1c(C)nn(C)c(=O)c1-c1c(-c2ccc(OC(F)F)cc2)sc2ccc(F)cc12", "note": "[2-285]", "F: southern crabgrass, herbicidal effect (criteria 0-5)": "1 (Herbicidal rate of 5% or more and less than 20%)"}
{"molecule": "Cc1nn(C)c(=O)c(-c2c(-c3ccc(OC(F)F)cc3)sc3ccc(F)cc23)c1OC(=O)c1cccs1", "note": "[2-288]", "F: southern crabgrass, herbicidal effect (criteria 0-5)": "2 (Herbicidal rate of 20% or more and less than 40%)"}
{"tested_on": "windgrass", "experiment": "Test Example 5: herbicidal effect by foliage application, plastic box (Table 20, symbol L)", "assay_type": "in vivo, windgrass (Apera spica-venti)", "settings": "foliage application, AAH 320 g/ha, evaluated three weeks after application", "method_in_brief": "as §2"}
{"molecule": "Cc1ccccc1C(=O)Oc1c(C)nn(C)c(=O)c1-c1c(-c2ccc(OC(F)F)cc2)sc2ccc(F)cc12", "note": "[2-285]", "L: windgrass, herbicidal effect (criteria 0-5)": "0 (Herbicidal rate of 5% or less (almost no effect))"}
{"molecule": "Cc1nn(C)c(=O)c(-c2c(-c3ccc(OC(F)F)cc3)sc3ccc(F)cc23)c1OC(=O)c1cccs1", "note": "[2-288]", "L: windgrass, herbicidal effect (criteria 0-5)": "3 (Herbicidal rate of 40% or more and less than 70%)"}
{"tested_on": "velvetleaf", "experiment": "Test Example 5: herbicidal effect by foliage application, plastic box (Table 20, symbol M)", "assay_type": "in vivo, velvetleaf (Abutilon theophrasti)", "settings": "foliage application, AAH 320 g/ha, evaluated three weeks after application", "method_in_brief": "as §2"}
{"molecule": "Cc1ccccc1C(=O)Oc1c(C)nn(C)c(=O)c1-c1c(-c2ccc(OC(F)F)cc2)sc2ccc(F)cc12", "note": "[2-285]", "M: velvetleaf, herbicidal effect (criteria 0-5)": "5 (Herbicidal rate of 90% or more (almost completely withered))"}
{"molecule": "Cc1nn(C)c(=O)c(-c2c(-c3ccc(OC(F)F)cc3)sc3ccc(F)cc23)c1OC(=O)c1cccs1", "note": "[2-288]", "M: velvetleaf, herbicidal effect (criteria 0-5)": "5 (Herbicidal rate of 90% or more (almost completely withered))"}
{"tested_on": "lambsquarters", "experiment": "Test Example 5: herbicidal effect by foliage application, plastic box (Table 20, symbol O)", "assay_type": "in vivo, lambsquarters (Chenopodium album)", "settings": "foliage application, AAH 320 g/ha, evaluated three weeks after application", "method_in_brief": "as §2"}
{"molecule": "Cc1ccccc1C(=O)Oc1c(C)nn(C)c(=O)c1-c1c(-c2ccc(OC(F)F)cc2)sc2ccc(F)cc12", "note": "[2-285]", "O: lambsquarters, herbicidal effect (criteria 0-5)": "5 (Herbicidal rate of 90% or more (almost completely withered))"}
{"molecule": "Cc1nn(C)c(=O)c(-c2c(-c3ccc(OC(F)F)cc3)sc3ccc(F)cc23)c1OC(=O)c1cccs1", "note": "[2-288]", "O: lambsquarters, herbicidal effect (criteria 0-5)": "5 (Herbicidal rate of 90% or more (almost completely withered))"}
{"tested_on": "chickweed", "experiment": "Test Example 5: herbicidal effect by foliage application, plastic box (Table 20, symbol P)", "assay_type": "in vivo, common chickweed (Stellaria media)", "settings": "foliage application, AAH 320 g/ha, evaluated three weeks after application", "method_in_brief": "as §2"}
{"molecule": "Cc1ccccc1C(=O)Oc1c(C)nn(C)c(=O)c1-c1c(-c2ccc(OC(F)F)cc2)sc2ccc(F)cc12", "note": "[2-285]", "P: chickweed, herbicidal effect (criteria 0-5)": "5 (Herbicidal rate of 90% or more (almost completely withered))"}
{"molecule": "Cc1nn(C)c(=O)c(-c2c(-c3ccc(OC(F)F)cc3)sc3ccc(F)cc23)c1OC(=O)c1cccs1", "note": "[2-288]", "P: chickweed, herbicidal effect (criteria 0-5)": "5 (Herbicidal rate of 90% or more (almost completely withered))"}
{"tested_on": "persian speedwell", "experiment": "Test Example 5: herbicidal effect by foliage application, plastic box (Table 20, symbol R)", "assay_type": "in vivo, Persian speedwell (Veronica persica)", "settings": "foliage application, AAH 320 g/ha, evaluated three weeks after application", "method_in_brief": "as §2"}
{"molecule": "Cc1ccccc1C(=O)Oc1c(C)nn(C)c(=O)c1-c1c(-c2ccc(OC(F)F)cc2)sc2ccc(F)cc12", "note": "[2-285]", "R: persian speedwell, herbicidal effect (criteria 0-5)": "5 (Herbicidal rate of 90% or more (almost completely withered))"}
{"molecule": "Cc1nn(C)c(=O)c(-c2c(-c3ccc(OC(F)F)cc3)sc3ccc(F)cc23)c1OC(=O)c1cccs1", "note": "[2-288]", "R: persian speedwell, herbicidal effect (criteria 0-5)": "5 (Herbicidal rate of 90% or more (almost completely withered))"}
